Experiments:
[1] = tested on: Puccinia recondita f. Sp. Tritici; test: Puccinia recondita f. sp. tritici / wheat / leaf disc preventative (brown rust); type: in vivo; conditions: foliar, 200 ppm in the applied formulation, wheat leaf segments cv. Kanzler, preventative (inoculated 1 day after application), compared to untreated, read-out: disease control
Method in brief: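 Sprayed at 200 ppm one day ahead of spore inoculation, wheat leaf segments of cultivar Kanzler sat on agar under 19° C., 75% relative humidity and alternating 12-hour light and dark. Efficacy was taken as percent disease control relative to untreated segments after 7 to 9 days.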

[2] = tested on: Glomerella lacenarium (Colletotrichum lagenarium); test: Glomerella lagenarium liquid culture / cucumber / preventative (anthracnose); type: cell-based; conditions: Colletotrichum orbiculare; 20 ppm in the applied formulation; liquid culture (PDB), growth inhibition measured photometrically 3 to 4 days after application; compared to untreated; read-out: disease control
Method in brief: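 Conidia from cryogenic storage were mixed into potato dextrose broth. This was added to compound diluted from DMSO into 0.025% Tween20, tested at 20 ppm. Plates were incubated in the dark at 24 °C and 96% relative humidity, and growth was read photometrically after 2–7 days as % activity versus untreated check.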

[3] = tested on: Puccinia recondita f. Sp. Tritici; test: Puccinia recondita f. sp. tritici / wheat / leaf disc curative (brown rust); type: in vivo; conditions: foliar, 24 h, 200 ppm in the applied formulation, wheat leaf segments cv. Kanzler, curative (applied 1 day after inoculation), compared to untreated, read-out: disease control
Method in brief: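 Curative leaf-segment test, cv. Kanzler: spore inoculation, dark storage 19° C/75% RH, compound spray 1 day post-inoculation. Then 12 h light/12 h dark, 19° C, 75% RH. Read-out: % disease control vs untreated check, 6–8 d after application.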

Phakopsora pachyrhizi = Phakopsora pachyrhizi / soybean / leaf disc preventative (Asian soybean rust); type: in vivo; conditions: foliar, 200 ppm in the applied formulation, soybean leaf disks, compared to untreated, read-out: disease control
Description: Leaf disks or leaf segments of various plant species are cut from plants grown in a greenhouse. The cut leaf disks or segments are placed in multiwell plates (24-well format) onto water agar. The leaf disks are sprayed with a test solution before (preventative) or after (curative) inoculation. Compounds to be tested are prepared as DMSO solutions (max. 10 mg/ml) which are diluted to the appropriate concentration with 0.025% Tween20 just before spraying. The inoculated leaf disks or segments are incubated under defined conditions (temperature, relative humidity, light, etc.) according to the respective test system. A single evaluation of disease level is carried out 3 to 14 days after inoculation, depending on the pathosystem. Percent disease control relative to the untreated check leaf disks or segments is then calculated.
Soybean leaf disks are placed on water agar in multiwell plates (24-well format) and sprayed with the formulated test compound diluted in water. One day after application leaf discs are inoculated by spraying a spore suspension on the lower leaf surface. After an incubation period in a climate cabinet of 24-36 hours in darkness at 20° C. and 75% rh leaf disc are kept at 20° C. with 12 h light/day and 75% rh. The activity of a compound is assessed as percent disease control compared to untreated when an appropriate level of disease damage appears in untreated check leaf disks (12 to 14 days after application).
The following compounds at 200 ppm in the applied formulation give at least 80% disease control in this test when compared to untreated control leaf disks under the same conditions, which show extensive disease development.

| Compound | melting point [°C] | pest or weed control at 200 ppm [1] [%] | inhibition of growth at 20 ppm [2] [%] | pest or weed control at 200 ppm [3] [%] | pest or weed control at 200 ppm (Phakopsora pachyrhizi) [%] |
| --- | --- | --- | --- | --- | --- |
| CCC(=O)NCc1ccc(-c2noc(C(F)(F)F)n2)cc1OC [Compound 1.30, N-[[2-methoxy-4-[5-(trifluoromethyl)-1,2,4-oxadiazol-3-yl]phenyl]methyl]propanamide] | 163 to 165 | – | – | – | – |
| COC(C)C(=O)NCc1ccc(-c2noc(C(F)(F)F)n2)nc1 (stereo not drawn) [Compound 1.105, 2-methoxy-N-[[6-[5-(trifluoromethyl)-1,2,4-oxadiazol-3-yl]-3-pyridyl]methyl]propanamide] | 99 to 103 | ≥ 80 | ≥ 80 | ≥ 80 | – |
| COCCC(=O)NC1(c2ccc(-c3noc(C(F)(F)F)n3)cc2)CC1 [Compound 1.98, 3-methoxy-N-[1-[4-[5-(trifluoromethyl)-1,2,4-oxadiazol-3-yl]phenyl]cyclopropyl]propanamide] | 113 to 118 | ≥ 80 | ≥ 80 | ≥ 80 | – |
| CCOCCOC(=O)NCc1ccc(-c2noc(C(F)(F)F)n2)cc1C(F)(F)F [Compound 2.2, 2-ethoxyethyl N-[[2-(trifluoromethyl)-4-[5-(trifluoromethyl)-1,2,4-oxadiazol-3-yl]phenyl]methyl]carbamate] | 60 to 66 | – | ≥ 80 | – | – |
| CC(C)C(=O)NCc1ccc(-c2noc(C(F)(F)F)n2)cc1F [Compound 1.35, N-[[2-fluoro-4-[5-(trifluoromethyl)-1,2,4-oxadiazol-3-yl]phenyl]methyl]-2-methyl-propanamide] | – | ≥ 80 | ≥ 80 | ≥ 80 | ≥ 80 |
| COCCCC(=O)NCc1ccc(-c2noc(C(F)(F)F)n2)cc1 [Compound 1.21, 4-methoxy-N-[[4-[5-(trifluoromethyl)-1,2,4-oxadiazol-3-yl]phenyl]methyl]butanamide] | – | ≥ 80 | ≥ 80 | ≥ 80 | ≥ 80 |
| CCN(CC)C(=O)NCc1ccc(-c2noc(C(F)(F)F)n2)cc1 [Compound 3.12, 1,1-diethyl-3-[[4-[5-(trifluoromethyl)-1,2,4-oxadiazol-3-yl]phenyl]methyl]urea] | – | ≥ 80 | ≥ 80 | ≥ 80 | ≥ 80 |
| O=C(CC(F)(F)F)NCc1ccc(-c2noc(C(F)(F)F)n2)c(F)c1F [Compound 1.63, N-[[2,3-difluoro-4-[5-(trifluoromethyl)-1,2,4-oxadiazol-3-yl]phenyl]methyl]-3,3,3-trifluoro-propanamide] | – | ≥ 80 | ≥ 80 | ≥ 80 | ≥ 80 |
| CC(C)C(=O)NCc1ccc(-c2noc(C(F)(F)F)n2)cc1 [Compound 1.6, 2-methyl-N-[[4-[5-(trifluoromethyl)-1,2,4-oxadiazol-3-yl]phenyl]methyl]propanamide] | – | ≥ 80 | ≥ 80 | ≥ 80 | ≥ 80 |
| COCC(=O)NCc1ccc(-c2noc(C(F)(F)F)n2)cc1F [Compound 1.38, N-[[2-fluoro-4-[5-(trifluoromethyl)-1,2,4-oxadiazol-3-yl]phenyl]methyl]-2-methoxy-acetamide] | – | ≥ 80 | ≥ 80 | ≥ 80 | ≥ 80 |
| CC(C)CC(=O)NCc1ccc(-c2noc(C(F)(F)F)n2)cc1 [Compound 1.12, 3-methyl-N-[[4-[5-(trifluoromethyl)-1,2,4-oxadiazol-3-yl]phenyl]methyl]butanamide] | – | ≥ 80 | ≥ 80 | ≥ 80 | ≥ 80 |
| CCC(C)(CC)C(=O)NCc1ccc(-c2noc(C(F)(F)F)n2)cc1 [Compound 1.20, 2-ethyl-2-methyl-N-[[4-[5-(trifluoromethyl)-1,2,4-oxadiazol-3-yl]phenyl]methyl]butanamide] | – | ≥ 80 | ≥ 80 | ≥ 80 | ≥ 80 |
| CCC(=O)NCc1ccc(-c2noc(C(F)(F)F)n2)cc1C [Compound 1.81, N-[[2-methyl-4-[5-(trifluoromethyl)-1,2,4-oxadiazol-3-yl]phenyl]methyl]propanamide] | 140 to 143 | – | ≥ 80 | – | – |
| CC(=O)NCc1ccc(-c2noc(C(F)(F)F)n2)cc1F [Compound 1.48, N-[[2-fluoro-4-[5-(trifluoromethyl)-1,2,4-oxadiazol-3-yl]phenyl]methyl]acetamide] | – | ≥ 80 | ≥ 80 | ≥ 80 | ≥ 80 |
| COCCCC(=O)NCCc1ccc(-c2noc(C(F)(F)F)n2)cc1 [Compound 1.89, 4-methoxy-N-[2-[4-[5-(trifluoromethyl)-1,2,4-oxadiazol-3-yl]phenyl]ethyl]butanamide] | – | ≥ 80 | ≥ 80 | ≥ 80 | ≥ 80 |
| CCC(=O)NCc1ccc(-c2noc(C(F)(F)F)n2)cc1C(F)(F)F [Compound 1.31, N-[[2-(trifluoromethyl)-4-[5-(trifluoromethyl)-1,2,4-oxadiazol-3-yl]phenyl]methyl]propanamide] | 100 to 102 | – | – | – | – |
| COCC(=O)NCCc1ccc(-c2noc(C(F)(F)F)n2)cc1 [Compound 1.86, 2-methoxy-N-[2-[4-[5-(trifluoromethyl)-1,2,4-oxadiazol-3-yl]phenyl]ethyl]acetamide] | – | ≥ 80 | ≥ 80 | ≥ 80 | ≥ 80 |
| CCCCOC(=O)NCc1ccc(-c2noc(C(F)(F)F)n2)cc1 [Compound 2.11, butyl N-[[4-[5-(trifluoromethyl)-1,2,4-oxadiazol-3-yl]phenyl]methyl]carbamate] | – | ≥ 80 | ≥ 80 | ≥ 80 | ≥ 80 |
| CCCC(=O)NCc1ccc(-c2noc(C(F)(F)F)n2)cc1F [Compound 1.36, N-[[2-fluoro-4-[5-(trifluoromethyl)-1,2,4-oxadiazol-3-yl]phenyl]methyl]butanamide] | – | ≥ 80 | ≥ 80 | ≥ 80 | ≥ 80 |
| CC(=O)NCc1ccc(-c2noc(C(F)(F)F)n2)c(F)c1 [Compound 1.47, N-[[3-fluoro-4-[5-(trifluoromethyl)-1,2,4-oxadiazol-3-yl]phenyl]methyl]acetamide] | – | ≥ 80 | ≥ 80 | ≥ 80 | ≥ 80 |
| C=CCOC(=O)NCc1ccc(-c2noc(C(F)(F)F)n2)cc1 [Compound 2.10, allyl N-[[4-[5-(trifluoromethyl)-1,2,4-oxadiazol-3-yl]phenyl]methyl]carbamate] | – | ≥ 80 | ≥ 80 | ≥ 80 | ≥ 80 |
| CC(C)C(=O)NCc1ccc(-c2noc(C(F)(F)F)n2)nc1 [Compound 1.106, 2-methyl-N-[[6-[5-(trifluoromethyl)-1,2,4-oxadiazol-3-yl]-3-pyridyl]methyl]propanamide] | 151 to 153 | ≥ 80 | – | ≥ 80 | – |
| O=C(CC(F)(F)F)NCc1ccc(-c2noc(C(F)(F)F)n2)c(F)c1 [Compound 1.44, 3,3,3-trifluoro-N-[[3-fluoro-4-[5-(trifluoromethyl)-1,2,4-oxadiazol-3-yl]phenyl]methyl]propanamide] | – | ≥ 80 | ≥ 80 | ≥ 80 | ≥ 80 |

— US10501425B2, “Microbiocidal oxadiazole derivatives” (SYNGENTA PARTICIPATIONS AG, priority 2015, dated 2019)
